Results reported in ChEMBL document CHEMBL5608234, “Heat Shock Protein 90 Interactome-Mediated Proteolysis Targeting Chimera (HIM-PROTAC) Degrading Glutathione Peroxidase 4 to Trigger Ferroptosis” (J Med Chem, 2024).
pIC50, pKd: −log10 of the molar value. The source made the active and inactive calls. The rule behind the calls is not given here.

Tests used:
HT-1080 [1] = assay: HIM-PROTAC activity at GPX4/HSP90/E3 ligase in HSP90-knockdown human HT-1080 cells assessed as GPX4 degradation at 1 uM preincubated with KW-2478 and KUNB-31 for 3 hrs followed by compound addition and measured after 24 hrs by Western blotting analysis; assay type: cell-based
Mus musculus = assay: Upregulation of 4-HNE level in ip dosed BALB/c mouse xenografted with human HT-1080 cells administered once daily by immunohistochemistry analysis; assay type: functional, organism-based; details: dose 25-50 mg/kg
[2] = molecular target: Heat shock protein HSP 90-alpha (Homo sapiens, UniProt P07900); assay: Binding affinity to recombinant human HSP90alpha by SPR assay
[3] = Half-life in ICR mouse at 25 mg/kg, ip measured upto 24 hrs by LC-MS/MS analysis; assay type: ADME, organism-based; details: in vivo
HT-1080 [4] = assay: HIM-PROTAC activity at GPX4/HSP90/E3 ligase in human HT-1080 cells assessed as reduction in GPX4 level incubated for 24 hrs by Western blotting analysis; assay type: cell-based
HT-1080 [5] = assay: HIM-PROTAC activity at GPX4/HSP90/E3 ligase in CUL5-knockdown human HT-1080 cells assessed as GPX4 degradation at 0.3 to 1 uM incubated for 24 hrs by Western blotting analysis; assay type: cell-based; details: dose 0.3-1 µM
[6] = Tmax in ICR mouse at 25 mg/kg, ip measured upto 24 hrs by LC-MS/MS analysis; assay type: ADME, organism-based; details: in vivo
HT-1080 [7] = assay: HIM-PROTAC activity at GPX4/HSP90/E3 ligase in human HT-1080 cells assessed as GPX4 degradation at 1 uM measured 12 hrs post compound washout by Western blotting analysis; assay type: cell-based
HT-1080 [8] = assay: Upregulation of HMOX1 protein level in human HT-1080 cells at 1 uM incubated for 24 hrs by proteomics analysis; assay type: functional, cell-based
HT-1080 [9] = assay: Upregulation of GPX4 protein level in human HT-1080 cells at 1 uM incubated for 4 hrs by Western blotting analysis; assay type: functional, cell-based
HT-1080 [10] = assay: HIM-PROTAC activity at GPX4/HSP90/E3 ligase in human HT-1080 cells assessed as reduction in GPX4 level at 1 uM preincubated with 6-chloro-9-((4-methoxy-3,5-dimethylpyridin-2-yl)methyl)-9H-purin-2-amine for 2 hrs followed by compound addition and measured after 24 hrs by Western blotting analysis; assay type: cell-based
HT-1080 [11] = assay: HIM-PROTAC activity at GPX4/HSP90/E3 ligase in HSP90-knockdown human HT-1080 cells assessed as GPX4 degradation at 1 uM preincubated with KUNB-31 for 3 hrs followed by compound addition and measured after 24 hrs by Western blotting analysis; assay type: cell-based
HT-1080 [12] = assay: HIM-PROTAC activity at GPX4/HSP90/E3 ligase in human HT-1080 cells assessed as GPX4 degradation at 0.3 to 1 uM preincubated with MLN4924 for 2 hrs followed by compound addition and measured after 24 hrs by Western blotting analysis; assay type: cell-based; details: dose 0.3-1 µM
[13] = AUCinfinity in ICR mouse at 25 mg/kg, ip measured upto 24 hrs by LC-MS/MS analysis; assay type: ADME, organism-based; details: in vivo
[14] = Toxicity in BALB/c mouse xenografted with human HT-1080 cells assessed as change in spleen morphology at 25 to 50 mg/kg, ip administered once daily by H and E staining based assay; assay type: organism-based; details: in vivo, dose 25-50 mg/kg
HT-1080 [15] = assay: Induction of ferroptosis in human HT-1080 cells assessed as broken mitochondrial outer membrane at 1 uM incubated for 24 hrs by TEM analysis; assay type: functional, cell-based
[16] = molecular target: T1, Phospholipid hydroperoxide glutathione peroxidase GPX4 (Homo sapiens) (UniProt P36969); assay: Induction of GPX4 ubiquitination in human HT-1080 cells at 1 uM incubated for 12 hrs by SDS-PAGE assay; assay type: cell-based; details: filed as activator
T1 sequence (whole entry): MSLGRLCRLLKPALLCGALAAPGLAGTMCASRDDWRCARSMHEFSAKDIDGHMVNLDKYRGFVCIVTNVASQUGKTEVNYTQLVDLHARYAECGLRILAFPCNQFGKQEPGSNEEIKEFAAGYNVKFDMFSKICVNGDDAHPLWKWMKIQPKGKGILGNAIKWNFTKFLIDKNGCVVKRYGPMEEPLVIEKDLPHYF

[17] = Toxicity in BALB/c mouse xenografted with human HT-1080 cells assessed as change in heart morphology at 25 to 50 mg/kg, ip administered once daily by H and E staining based assay; assay type: organism-based; details: in vivo, dose 25-50 mg/kg
HT-1080 [18] = assay: HIM-PROTAC activity at GPX4/HSP90/E3 ligase in human HT-1080 cells assessed as downregulation of GPX4 mRNA level at 0.1 to 1 uM incubated for 24 hrs by qRT-PCR analysis; assay type: cell-based; details: dose 0.1-1 µM
HT-1080 [19] = assay: HIM-PROTAC activity at GPX4/HSP90/E3 ligase in CUL2-knockdown human HT-1080 cells assessed as GPX4 degradation at 0.3 to 1 uM incubated for 24 hrs by Western blotting analysis; assay type: cell-based; details: dose 0.3-1 µM
HT-1080 [20] = assay: HIM-PROTAC activity at GPX4/HSP90/E3 ligase in HSP90-knockdown human HT-1080 cells assessed as GPX4 degradation at 1 uM preincubated with KW-2478 for 3 hrs followed by compound addition and measured after 24 hrs by Western blotting analysis; assay type: cell-based
HT-1080 [21] = assay: HIM-PROTAC activity at GPX4/HSP90/E3 ligase in LZTR1 knockdown human HT-1080 cells assessed as GPX4 degradation at 0.3 to 1 uM incubated for 24 hrs by Western blotting analysis; assay type: cell-based; details: dose 0.3-1 µM
[22] = Cmax in ICR mouse at 25 mg/kg, ip measured upto 24 hrs by LC-MS/MS analysis; assay type: ADME, organism-based; details: in vivo
HT-1080 [23] = assay: HIM-PROTAC activity at GPX4/HSP90/E3 ligase in CHIP knockdown human HT-1080 cells assessed as GPX4 degradation at 1 uM incubated for 24 hrs by Western blotting analysis; assay type: cell-based
HT-1080 [24] = assay: Induction of ferroptosis in human HT-1080 cells assessed as appearance of autophagosome-like structures at 1 uM incubated for 24 hrs by TEM analysis; assay type: functional, cell-based
HT-1080 [25] = assay: HIM-PROTAC activity at GPX4/HSP90/E3 ligase in CUL1-knockdown human HT-1080 cells assessed as GPX4 degradation at 0.3 to 1 uM incubated for 24 hrs by Western blotting analysis; assay type: cell-based; details: dose 0.3-1 µM
[26] = Toxicity in BALB/c mouse xenografted with human HT-1080 cells assessed as animal death at 50 mg/kg, ip administered once daily measured after 10 days; assay type: organism-based; details: in vivo, 240 h, time 10 day
HT-1080 [27] = assay: Cytotoxicity against human HT-1080 cells incubated for 48 hrs by CCK-8 assay; assay type: functional, cell-based; details: HT-1080, 48 h
[28] = Drug uptake in human HT-1080 cells at 5 uM incubated for 6 hrs by LC-MS analysis; assay type: ADME, cell-based; details: ht-1080, 6 h
HT-1080 [29] = assay: HIM-PROTAC activity at GPX4/HSP90/E3 ligase in human HT-1080 cells assessed as downregulation of GPX4 mRNA level at 1 uM incubated for 24 hrs by qRT-PCR analysis; assay type: cell-based
HT-1080 [30] = assay: HIM-PROTAC activity at GPX4/HSP90/E3 ligase in human HT-1080 cells assessed as GPX4 degradation at 1 uM measured 24 hrs post compound washout by Western blotting analysis; assay type: cell-based

| SMILES | Activity (Mus musculus) | pKd [2] | half-life [3] [h] | Tmax [6] [h] | Activity (HT-1080 [8]) | Activity (HT-1080 [9]) | Activity (HT-1080 [10]) | AUC(0-inf) [13] [ng·h/mL] | Activity [14] | Activity (HT-1080 [15]) | Activity [16] | Activity [17] | Cmax [22] [ng/mL] | Activity (HT-1080 [24]) | Activity [26] | pIC50 (HT-1080 [27]) | further results |
| --- | --- | --- | --- | --- | --- | --- | --- | --- | --- | --- | --- | --- | --- | --- | --- | --- | --- |
| COc1c(C)cnc(Cn2cnc3c(NCCC4CCN(C(=O)Cn5cc(COc6ccc(N(C(=O)CCl)C(C(=O)NCCc7ccccc7)c7cccs7)cc6Cl)nn5)CC4)nc(N)nc32)c1C (configuration not stated) | Dose-Dependent Effect | 6.72 | 5 | 2 | Active | Active | inactive | 346 | Non-Toxic | Active | Active | Non-Toxic | 53.1 | Active | Non-Toxic | 6.13 | Activity (HT-1080 [1]): inactive; Activity (HT-1080 [4]): Dose-Dependent Effect; Activity (HT-1080 [5]): inactive; Activity (HT-1080 [7]): Active; Activity (HT-1080 [11]): inactive; Activity (HT-1080 [12]): inactive; Activity (HT-1080 [18]): inactive; Activity (HT-1080 [19]): Active; Activity (HT-1080 [20]): inactive; Activity (HT-1080 [21]): Active; Activity (HT-1080 [23]): inactive; Activity (HT-1080 [25]): Active |
| COc1c(C)cnc(Cn2cnc3c(NCCOCCOCCOCCn4cc(COc5ccc(N(C(=O)CCl)C(C(=O)NCCc6ccccc6)c6cccs6)cc5Cl)nn4)nc(N)nc32)c1C (configuration not stated) | Dose-Dependent Effect | 5.56 | 5.5 | 2 | Active | Active | inactive | 1030 | Non-Toxic | Active | Active | Non-Toxic | 139 | Active | Non-Toxic | 5.89 | Drug uptake [28]: Active; Activity (HT-1080 [29]): Active; Activity (HT-1080 [30]): Active |
